One data set has as its system rats. Conditions: 0.05% in diet for 2 years; cited from earlier work.
The test system of another data set is normal mice. The settings on record: cited from earlier work.
Data set [1] concerns kidney, liver, stomach, lungs and spleen. Briefly: Pathological and histological examination of tissues of treated animals. In kind it is in vivo, mice. The method, then: C6 rat glioma cells (10^6) were injected subcutaneously into the back of the neck of CD1 nude male mice. After 3 days, 1 ml of aqueous solutions with or without 0.1-0.5 mM disulfiram (25-120 μg) was introduced per os to the mice using a feeding needle. Mice were orally fed three times per week. Tumors were removed 30 days following C6 cells injection, weighed, fixed in buffered formalin and histological sections were prepared. Each experimental group included 8 animals, and experiments were repeated twice.
Since disulfiram inhibits angiogenesis both in vivo in mice and in vitro in C6 glioma cells, it can be assumed that tumor growth inhibition observed for disulfiram is the result of its dual action, one on the neovascularization of the tumor and one on the C6 glioma cells. […] Blood vessels examined in these tissues were also not affected.

The test system of data set [2] is neoplasia of the large bowl. The settings on record: 1,2-dimethylhydrazine; cited from earlier work.
The test system of data set [3] is neoplasia of the forestomach. Conditions: benzo(a)pyrene, mice; cited from earlier work.
The next data set has as its system intestinal cancer. The settings on record: azoxymethane, rats; cited from earlier work.
The subject of the next data set is liver tumors. The settings on record: dimethyl- or diethylnitrosamine, rats; cited from earlier work.
The subject of the next data set is C6 rat glioma cells. Briefly: DNA synthesis (3H-thymidine incorporation) in C6 rat glioma cells. Conditions: for IC (maximal): Rattus norvegicus. Format: cell-based. The method, then: C6 rat glioma cells were routinely cultured in DMEM supplemented with 5% FCS (Biological Industries, Israel), GPS (100 U/ml penicillin, […] streptomycin (Biological Industries, Israel) and 2 mM glutamine (Biolab Ltd. Israel)) and 125 μg/ml fungizone (Biolab Ltd, Israel).
C6 rat glioma cells were plated in 96-well plates (Nunc, Denmark) (5000 cells per well) in DMEM with 5% FCS. After 6 hours the cells were rinsed and incubated for 48 hours in serum free medium. 5% FCS or growth factors were then added to the cells for 24 hours (triplicates). ^3 H-methyl-thymidine (5μCi/ml) (Rotem Ind. Ltd., Israel) was added to the cells for the last 14 hours. The cells were rinsed with 100 μl methanol for 10 minutes, followed by 200 μl 5% trichloroacetic acid, and then rinsed and lysed with 150 μl 0.3M NaOH. Radioactive thymidine incorporated into the DNA was determined for 1 min with 3 ml scintillation liquid (ULTIMA GOLD Packard) in a β-counter. DNA synthesis assays were performed in triplicates.
Disulfiram was prepared in 0.1 mM stock solutions in DMSO. Control samples were incubated with the appropriate concentration of DMSO. Inhibition was calculated as percentage of DNA synthesis of control.
To determine whether disulfiram acts directly on endothelial cells rather than on accessory cells such as macrophages and mast cells that can be responsible for the development of an angiogenic response in vivo, the effect of the drug on the growth of BCE cells was examined in vitro as described in section (c) of "Materials and Methods" above. DNA synthesis in BCE cells was measured in presence of increasing concentrations of disulfiram incubated for 24 hours with the cells. […] Maximal inhibitory activity (80%) for BSMC was at 0.5-1 μM disulfiram, while maximal inhibitory activity for C6 glioma cells or BALB/MK keratinocytes was at concentrations 10 fold higher (2-3 μM) than those for endothelial cells (0.2-0.5 μM).
To examine the time course of the effect of disulfiram and whether the effect was reversible, cells were incubated with disulfiram for various periods of time (1, 2, 4 and 24 hours), then washed away and DNA synthesis was determined. One to 4 hours of exposure to disulfiram were enough to induce maximal inhibitory effect at concentrations ranging from 0.5 μM for BCE cells (FIG. 3A) to 5 μM for BALB/MK keratinocytes (FIG. 3C) and C6 glioma cells (FIG. 3D). […] BSMC were less sensitive as far as time course is concerned when incubated with 1 μM disulfiram. Following 4 hours of incubation with 1 μM disulfiram, DNA synthesis inhibition in BSMC reached only 50% (FIG. 3B). […]

A further data set concerns BALB/MK keratinocytes. The experiment in a line: Apoptosis by FACS in BALB/MK keratinocytes. In kind it is cell-based, murine. The settings on record: 4 μM (not shown). The method, then: Cells were cultured in plastic tissue culture dishes for 48 hours in presence of growth media as described above, until reaching 40-50% confluency. Disulfiram was then added to the cells for 20 hours. The cells were removed from the plates by EDTA-trypsin and fixed in ice-cold 70% ethanol (BioLab, Israel) in -20° C. for 2 hr to overnight. The fixed cells (2-5×10^6) were washed once with HEPES-buffered saline (HBSS) and incubated with 0.5 mg/ml RNAseH (Boehringer Mannheim). Afterwards the cells were resuspended in HBSS containing 50 μg/ml propidium iodide (Sigma) and subsequently analyzed on a FACSort flow cytometer (Beckton Dickinson Inc.) using Lysis II software. For the analysis, 10,000 cells were examined from each sample. The percentage of the hypodiploid cells was measured (Darzynkiewicz, 1992; Afanasyev, 1993). The cell cycle histogram was divided into four regions according to the cell cycle phases: Ap, apoptotic cells; G1, diploid cells; S, intermediate cells; and G2 /M, tetraploid cells.

The conditions of data set [4]: cited from earlier work.

Where two headings read alike, the source gives them in different places.

Turning to `CCN(CC)C(=S)SSC(=S)N(CC)CC` [disulfiram, Bis(diethylthiocarbamoyl) disulfide], the “increase of any tumor type” value in the data set with rats is “did not increase any tumor type”. Further, the toxic dose with normal mice was 6-10 mg/mouse/day. In data set [1], the “effect on blood vessels in tissues” value is “not affected”. Besides, the “pathological effect on tissues” value in data set [1] is given as “no effect on these tissues”. Further, the “interference with neoplasia of the large bowl” value in data set [2] was “interfere with induction of cancer”. Also, in data set [3], the “interference with neoplasia of the forestomach” value was “interfere with induction of cancer”. Besides, the “interference with induction of intestinal cancer” value in the data set with intestinal cancer is “interfere with induction of cancer”. Besides, the “interference with induction of liver tumors” value in the data set on liver tumors was “interfere with induction of cancer”. The “maximal inhibitory concentration relative to endothelial cells, fold higher” value in the data set on C6 rat glioma cells (C6 glioma vs endothelial cells (0.2-0.5 μM)) was 10 fold. The “persistence of inhibitory effect after short exposure” value with C6 rat glioma cells (C6 glioma, 24 hours following short exposure) is “inhibitory effect seemed to be maintained”. Besides, the IC (maximal) in the data set with C6 rat glioma cells (C6 glioma cells, read-out: concentration of maximal inhibitory activity (DNA synthesis)) was 2 to 3 µM; in the data set on C6 rat glioma cells (C6 glioma, 1 to 4 hours of exposure, washed, read-out: concentration inducing maximal inhibitory effect on DNA synthesis, short exposure) it was 5 µM. Further, the “apoptosis by FACS” value in the data set on BALB/MK keratinocytes is “did not exhibit induction of apoptosis”. Moreover, the solubility in water entry in [4] was “soluble in water”. The “solubility in methanol, acetone or chloroform” value in [4] (hydrophobic solutions) is on record as “solubilizes better”.
